Measurements reported in patent US7906675B2, “Compounds for the treatment of metabolic disorders” (Wellstat Therapeutics Corporation, priority 2003, dated 2011).

Test system: C57BL/Ksola (db/db) mice
Experiment: Antidiabetic effects in db/db diabetic mouse model
Format: in vivo
Details: serum, 60 mg/kg daily oral for 17 days
Description: C57BL/Ksola (db/db) mice have a defect in leptin signaling, leading to hyperphagia, obesity, hypertriglyceridemia, and diabetes. Moreover, unlike ob/ob mice on a C57BL/6J background, db/db mice on a C57BLKS background undergo failure of their insulin-producing pancreatic islet cells, resulting in progression from hyperinsulinemia (associated with peripheral insulin resistance) to hypoinsulinemic diabetes.
Male obese (db/db homozygote) C57BL/Ksola mice approximately 8 weeks of age, were obtained from Jackson Labs (Bar Harbor, Me.) and sorted into groups of 7 animals each animals such that the body weights (40-45 g) and serum glucose levels (≧300 mg/dl in fed state) were similar between groups. A minimum of 7 days was allowed for adaptation after arrival. All animals were maintained under controlled temperature (23° C.), relative humidity (50±5%) and light (7:00-19:00), and allowed free access to standard chow (Formulab Diet 5008, Quality Lab Products, Elkridge, Md.) and water.
Groups of mice received daily oral doses of vehicle (1% hydroxypropylmethylcellulose) or Compound CS (60 mg/kg) for 17 days. At the end of the treatment period, blood samples were collected and serum glucose, triglycerides, and free fatty acids were measured.

Cc1cccc(C)c1CSc1ccc(C(=O)CCC(=O)O)cc1 [Compound CS, 4-(4-[(2,6-Dimethylbenzyl)-thio]-phenyl)-4-oxobutyric acid]
Free Fatty Acids: 2034 ± 195 µM
Triglycerides: 150 ± 10 mg/dL
Glucose (±SEM): 593 ± 77 mg/dL
